Assay results reported in US11154476B2, “Synergistic effects of alkanolamine alkylamides and other moisturizing agents” (Akzo Nobel Chemicals International, B.V., priority 2016, dated 2021).

Legend:
[1] = Dynamic Vapor Sorption (DVS) analysis, equilibrium water absorption; type: physicochemical; conditions: DVS at 50% humidity, 25° C., single moisturizing agents / Ex. 1 and 2 products
Method: Dynamic Vapor Sorption (DVS) technique was used to measure the moisture intake of a specific compound at certain humidity level. DVS Intrinsic instrument manufactured by Surface Measurement Systems UK Ltd. (London, United Kingdom) was used to measure DVS. The following measurement procedure was used to determine the water vapor absorption of a specific composition.
A uniform aqueous solution of a target composition was made at 50% concentration. About 1.2 to 1.6 mg of the prepared aqueous solution was added to DVS instrument at zero tare balance. The temperature was then set at 25° C. A measurement was performed at 90% humidity to ensure that the sample absorbs the highest level of water in order to minimize the mass transfer barrier during the evaporation process. The dynamics of water absorption was determined by the weight change per minute; with water absorption equilibrium defined as the time at which the weight change per minute was less than 0.005% of the sample weight. The equilibrium weight at 0% humidity is the sample weight by itself. Thus, the percentage of equilibrium water absorption at various humidity levels was calculated.
Using the above procedure, DVS was used to evaluate water absorption for compositions comprising DGA Acetamide, other moisturizing agents, and combinations of DGA Acetamide and various additional moisturizing agents. First, DVS values were obtained at 50% humidity for the DGA acetamide products of Examples 1 and 2 above and other selected moisturizing agents.
Then, 1:1 mixtures based on weight were made of each of the DGA Acetamide products of Examples 1 and 2 above with each of the other four moisturizing agents, where the DGA acetamide product of Example 1 is DGA Acetamide:glycerol (83 wt %:17 wt %) and the DGA acetamide product of Example 2 is substantially 100% DGA acetamide. DVS measurements were taken at 50% humidity, using the same amount of total moisturizing agent. It was expected that the DVS values of the mixtures with the other four moisturizing agents would have been the average of the DVS values of each of the moisturizing agents individually, based on the weight percent of each in the mixture.

[2] = tested on: inner forearm of each panelist; test: Corneometer analysis of test gel formulations, scaled moisturization performance (SMP); type: in vivo; conditions: average of 8 panelists, water = 0, glycerol = 1, 22° C., 50% RH; for Corneometer SMP results, 6 hours: 6 hours after single application of gel with 5 wt % active; for Corneometer SMP results, 30 hours: 30 hours after single application of gel with 5 wt % active
Method: To prepare a gel formulation, deionized water was added to a 4 oz. tall jar that was set up for mixing using an overhead mixer and a jiffy blade. The water was then mixed at a speed that created a good vortex that nearly reached the bottom of the jar (e.g., about 700 rpm). To this, Carbopol® 940 (cross-linked polyacrylate polymer available from Lubrizol, Wickliffe, Ohio) was slowly added and mixed for at least 15 minutes until homogeneous. Triethanolamine (TEA) was then added and the mixing speed was adjusted overhead to about 200 rpm and continued mixing for about 10 minutes (e.g., product viscosity increased). To this mixture was added 5 wt % of the moisturizing agent, as either a single agent or a combination of agents, followed by 0.5 wt % Glydant™ Plus™ (a preservative available from Lonza, Basel, Switzerland) and the remaining, balance water. Mixing was continued at 200 rpm for about 15-20 minutes. The mixture was then removed from the mixer and the final pH was measured. Prior to analysis, samples were centrifuged at 2000 rpm for 15 minutes to remove suspended air pockets from the gel formulation.
About 30 μl of each test gel formulation was applied once (e.g., in a single application with no additional re-applications) in a circle with diameter of about 3 cm on the inner forearm of each panelist. Moisture levels were measured using a Corneometer® CM 825 (available from CK Industries) prior to application of the test gel formulations, and at 6 hour and 30 hour intervals after application, at a temperature of 22° C. and relative humidity of 50%.
To facilitate more meaningful comparisons of the corneometer data for the different test formulations, the following adjustment were made to minimize the variations in the response of humectant treatment: the moisturization performance for glycerol was defined to be 1, and that for water to be zero, then the scaled moisturization performance (SMP) for a specific moisturizing active was defined as: […]
RActive, Rwater, and Rglycerol were the actual corneometer readings of the test gel formulations comprising the active moisturizing agent(s), water, and glycerol, respectively, for an individual panelist at a specific time after the initial treatment. The overall SMP of each tested activewas then the average of SMP over 8 panelists. […] The SMP values illustrated in FIG. 4 provide narrower standard deviations over 8 panelists when compared to actual corneometer readings in FIG. 3.
Using this procedure, corneometer measurements were taken at 6 hours and 30 hours for hydroxyethyl urea, glycerol, the DGA acetamide:glycerol (83:17 wt %) of Example 1, the DGA Acetamide of Example 2, a 1:1 mixture of the DGA Acetamide of Example 2 with hydroxyethyl urea, and a 1:1 mixture of the DGA Acetmaide of Example 2 with glycerol. Measurements were taken at six hours and 30 hours on eight subjects, and calculated as scaled moisturization performance values.

| SMILES | % water absorbed (based on weight of moisturizing agent) [1] [%] | Corneometer SMP results, 6 hours [2] | Corneometer SMP results, 30 hours [2] |
| --- | --- | --- | --- |
| CC(O)C(=O)[O-].[Na+] (centres unmarked) [F, Sodium lactate] | 35.1 | – | – |
| O=C1CCC(C(=O)[O-])N1.[Na+] (centres unmarked) [E, sodium pyrrolidone carboxylate] | 28.7 | – | – |
| OCC(O)CO [D, Glycerol] | 27.7 | 1.0 | 1.0 |
| CC(=O)NCCOCCO [C, N-acetyl diglycolamine] | 26.9 | 0.80 | 0.92 |
| NC(=O)NCCO [A, Hydroxyethyl urea] | 19.7 | 0.91 | 1.03 |
